According to US10660928B2, “Pharmaceutical composition containing combination extracts of Moutan Root Bark, Angelica Dahurica Root, bupleurum root or fractions thereof for prevention and treatment of neurodegenerative disorder” (UNIVERSITY-INDUSTRY COOPERATION GROUP OF KYUNG HEE …, priority 2014, dated 2020):

Assays:
BV2 cells [1] = assay: MTT assay, LPS-induced inflammatory response; type: cell-based, mouse; conditions: BV2, treatment 1.0 μg/ml, inducer LPS 100 ng/ml
Protocol: Particularly, BV2 cells were cultured by the same manner as described in Experimental Example <3-1>. Then, the cultured cells were transferred into a serum free medium at the density of 1×10^5 cells/well. The cells were treated with the Bupleurum Root 90% ethanol extract prepared in Example <1-3>, saikosaponin A, saikosaponin B2, saikosaponin B4, or saikosaponin D at the concentration of 1.0 μg/ml, followed by culture for 4 hours. The cells were then treated with 100 ng/ml of lipopolysaccharide (LPS), followed by culture for 20 hours to induce inflammatory response. MTT assay was performed with the cells induced with inflammatory response by the same manner as described in Experimental Example <1-2>. The damage of mitochondria complex 1 was confirmed to see how the damage level was either increased or decreased, compared with the normal control group treated with DMSO without the extract or its active component. In the meantime, the negative control group was treated with 100 ng/ml of LPS alone to induce inflammatory response and was not treated with the extract or its active component. Then, MTT assay was performed by the same manner as described above.

interleukin-6, (IL-6) = assay: RT-PCR of IL-6 mRNA, LPS-induced cells; type: cell-based, mouse; conditions: BV2, treatment 1.0 μg/ml, LPS 100 ng/ml; negative control 100.00
Protocol: (§1) Particularly, BV2 cells were cultured by the same manner as described in Experimental Example <3-1>, and inflammatory response was induced. Then, RT-PCR was performed with the cells by the same manner as described in Experimental Example <1-4>, followed by quantitative analysis of the expression levels of iNOS, IL-6, and NF-kB p65/ReIA genes. The normal control was not treated with the extract of the invention or the active component thereof but treated with DMSO alone. The negative control was not treated with the extract or the active component but treated with 100 ng/ml of LPS alone to induce inflammatory response. Then, the expression of the inflammatory response marker gene was confirmed by the same manner as described above.

[2] = test system: inducible nitric oxide synthase (iNOS); assay: RT-PCR of iNOS mRNA, LPS-induced cells; type: cell-based, mouse; conditions: BV2, treatment 1.0 μg/ml, LPS 100 ng/ml; negative control 100.00
Protocol: as §1

NF-kB p65/ReIA = assay: RT-PCR of NF-kB p65/ReIA mRNA, LPS-induced cells; type: cell-based, mouse; conditions: BV2, treatment 1.0 μg/ml, LPS 100 ng/ml; negative control 100.00
Protocol: as §1

BV2 cells [3] = assay: DCF-DA intracellular ROS, LPS-induced cells; type: cell-based, mouse; conditions: BV2, treatment 1.0 μg/ml, inducer LPS 100 ng/ml
Protocol: Particularly, BV2 cells were cultured by the same manner as described in Experimental Example <3-1>, and inflammatory response was induced. Then, the cells induced with inflammatory response were treated with 1 μM DCF-DA and 0.05 μM bisbenzimide (Hoechst 33342), followed by staining at 37° C. for 1 hour. After the staining, the fluorescence intensity of DCF-DA was measured at 485 nm/535 nm, and the fluorescence intensity of bisbenzimide was measured at 335 nm/460 nm. Based on the ratio of DCF-DA/bisbenzimide, ROS was quantified. The amount of ROS, either increased or decreased, was compared with that of the normal control not treated with the extract or the active component thereof but treated with DMSO, and the results were presented as %. The negative control was treated with 100 ng/ml of LPS alone to induce inflammatory response but not treated with the extract or the active component thereof. Then, the generation of ROS was investigated by the same manner as described above.
(§2) Particularly, BV2 cells were cultured by the same manner as described in Experimental Example <3-1>, and inflammatory response was induced. Then, 100 μl of the cell culture medium was obtained, to which 100 μl of Griess reagent comprising hydrochloric acid containing 5% sulfanilamide and 2% naphthylethylenediamine was added, followed by reaction in a dark room for 30 minutes. Upon completion of the reaction, OD540 was measured with an EISA microplate reader (Versamax, USA). The concentration of nitric oxide in the medium was calculated using the standard calibration curve of sodium nitrite. To measure the ROS concentration, the cells were treated with 1 μM DCF-DA and 0.05 μM bisbenzimide (Hoechst 33342), followed by staining at 37° C. for 1 hour. After the staining, the fluorescence intensity of DCF-DA was measured at 485 nm/535 nm, and the fluorescence intensity of bisbenzimide was measured at 335 nm/460 nm. Based on the ratio of DCF-DA/bisbenzimide, ROS was quantified. The amount of ROS, either increased or decreased, was compared with that of the normal control not treated with the extract but treated with DMSO, and the results were presented as %. The negative control was treated with 100 ng/ml of LPS alone to induce inflammatory response but not treated with the extract or the active component thereof. Then, the nitric oxide concentration reduction effect and the ROS concentration reduction effect were investigated by the same manner as described above.

[4] = test system: BV2, the mouse microglial cell line; assay: Cell survival rate (calcein) in normal microglial cells, cytotoxicity; type: cell-based; conditions: 1.0 μg/ml, 4 hours
Protocol: Particularly, BV2, the mouse microglial cell line, was inoculated in 1:1 DMEM (Dulbeco's Modified Eagle's Medium; Gibco, USA) supplemented with 10% FBS, followed by culture in a 37° C., 5% CO2/95% air (O2) incubator. Then, the cultured cells were transferred into a serum free medium at the density of 2.5×10^4 cells/well. The cells were treated with the Bupleurum Root 90% ethanol extract prepared in Example <1-3>, saikosaponin A, saikosaponin B2, saikosaponin B4, or saikosaponin D at the concentration of 1.0 μg/ml for 4 hours. The cells were collected and the cell survival rate was measured by using calcein. The survival rate of the cells that were increased or decreased compared with that of the normal control cells not-treated with the extract or its active component above and instead treated with DMSO was calculated and presented as percentage (%).

BV2 cells [5] = assay: Griess method, nitric oxide in medium of LPS-induced cells; type: cell-based, mouse; conditions: BV2, treatment 1.0 μg/ml, inducer LPS 100 ng/ml
Protocol: Particularly, BV2 cells were cultured by the same manner as described in Experimental Example <3-1>, and inflammatory response was induced. Then, 100 μl of the cell culture medium was obtained, to which 100 μl of Griess reagent comprising hydrochloric acid containing 5% sulfanilamide and 2% naphthylethylenediamine was added, followed by reaction in a dark room for 30 minutes. Upon completion of the reaction, OD540 was measured with an EISA microplate reader (Versamax, USA). The concentration of nitric oxide in the medium was calculated using the standard calibration curve of sodium nitrite. The normal control was not treated with the extract or the active component thereof but treated with DMSO. The negative control was treated with 100 ng/ml of LPS alone to induce inflammatory response but not treated with the extract or the active component. Then, the nitric oxide concentration reduction effect was investigated by the same manner as described above.
as §2

SMILES | MTT (% of control) (BV2 cells [1]) | IL-6 mRNA (% of control) (interleukin-6, (IL-6)) | iNOS mRNA (% of control) [2] | p65/ReIA mRNA (% of control) (NF-kB p65/ReIA) | DCF-DA-ROS (% of control) (BV2 cells [3]) | Cell survival rate (% of control) [4] | NO (BV2 cells [5])
C[C@H]1O[C@@H](O[C@H]2CC[C@@]3(C)[C@@H](CC[C@]4(C)[C@@H]3C=CC3=C5CC(C)(C)CC[C@]5(CO)[C@H](O)C[C@]34C)[C@]2(C)CO)[C@H](O)[C@@H](O[C@@H]2O[C@H](CO)[C@@H](O)[C@H](O)[C@H]2O)[C@H]1O [saikosaponin B2, (3b,4a,16a)-16,23,28-Trihydroxyoleana-11,13(18)-dien-3-yl-6-deoxy-3-O-beta-D-glucopyranosyl-beta-D-galactopyranoside] | 88.85 ± 6.48 % of control | 29.67 ± 2.39 % of control | 18.11 ± 2.39 % of control | 50.18 ± 2.67 % of control | 214.22 ± 1.87 % of control | 102.74 ± 8.55 % of control | 19 ± 2.68 µM
CO[C@@H]1C=C2[C@@H]3CC(C)(C)CC[C@]3(CO)[C@H](O)C[C@@]2(C)[C@]2(C)CC[C@H]3[C@](C)(CO)[C@@H](O[C@@H]4O[C@H](C)[C@H](O)[C@H](O[C@@H]5O[C@H](CO)[C@@H](O)[C@H](O)[C@H]5O)[C@H]4O)CC[C@]3(C)[C@@H]12 [saikosaponin B4, (3β,11α,16α)-16,23,28-Trihydroxy-11-methoxyolean-12-en-3-yl-6-deoxy-3-O-β-D-glucopyranosyl-β-D-galactopyranoside] | 87.12 ± 2.56 % of control | 28.53 ± 1.92 % of control | 26.06 ± 3.27 % of control | 53.70 ± 4.72 % of control | 223.26 ± 2.86 % of control | 97.99 ± 2.86 % of control | 17.2 ± 2.11 µM
C[C@H]1O[C@@H](O[C@H]2CC[C@@]3(C)[C@@H](CC[C@]4(C)[C@@H]3C=C[C@]35OC[C@@]6(CCC(C)(C)C[C@H]63)[C@H](O)C[C@]54C)[C@]2(C)CO)[C@H](O)[C@@H](O[C@@H]2O[C@H](CO)[C@@H](O)[C@H](O)[C@H]2O)[C@H]1O [saikosaponin D, (3b,4a,16a)-13,28-Epoxy-16,23-dihydroxyolean-11-en-3-yl 6-deoxy-3-O-beta-D-glucopyranosyl beta-D-galactopyranoside] | 86.73 ± 1.25 % of control | 26.58 ± 1.75 % of control | 21.23 ± 1.99 % of control | 49.80 ± 3.54 % of control | 218.61 ± 2.71 % of control | 97.45 ± 3.99 % of control | 18.1 ± 2.93 µM
